Assays:
[1] = target: T1, 5-hydroxytryptamine receptor 2C (Homo sapiens, UniProt P28335); assay: Binding affinity to 5HT2C receptor (unknown origin) assessed as inhibition constant
T1 sequence (P28335 whole entry): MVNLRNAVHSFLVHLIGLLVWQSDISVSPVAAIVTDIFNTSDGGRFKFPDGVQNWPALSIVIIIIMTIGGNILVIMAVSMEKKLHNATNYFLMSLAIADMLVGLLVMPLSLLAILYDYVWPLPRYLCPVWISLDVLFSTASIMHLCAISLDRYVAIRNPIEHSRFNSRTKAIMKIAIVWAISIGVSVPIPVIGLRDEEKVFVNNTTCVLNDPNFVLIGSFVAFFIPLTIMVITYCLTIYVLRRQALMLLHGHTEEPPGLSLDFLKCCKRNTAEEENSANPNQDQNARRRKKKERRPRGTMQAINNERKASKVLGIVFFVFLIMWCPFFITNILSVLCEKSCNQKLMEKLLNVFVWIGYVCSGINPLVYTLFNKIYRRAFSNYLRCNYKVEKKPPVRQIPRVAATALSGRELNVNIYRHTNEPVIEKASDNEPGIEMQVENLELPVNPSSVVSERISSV

[2] = target: T2, 5-hydroxytryptamine receptor 2A (Homo sapiens, UniProt P28223); assay: Binding affinity to 5HT2A receptor (unknown origin) at 10 uM relative to control
T2 sequence (P28223 whole entry): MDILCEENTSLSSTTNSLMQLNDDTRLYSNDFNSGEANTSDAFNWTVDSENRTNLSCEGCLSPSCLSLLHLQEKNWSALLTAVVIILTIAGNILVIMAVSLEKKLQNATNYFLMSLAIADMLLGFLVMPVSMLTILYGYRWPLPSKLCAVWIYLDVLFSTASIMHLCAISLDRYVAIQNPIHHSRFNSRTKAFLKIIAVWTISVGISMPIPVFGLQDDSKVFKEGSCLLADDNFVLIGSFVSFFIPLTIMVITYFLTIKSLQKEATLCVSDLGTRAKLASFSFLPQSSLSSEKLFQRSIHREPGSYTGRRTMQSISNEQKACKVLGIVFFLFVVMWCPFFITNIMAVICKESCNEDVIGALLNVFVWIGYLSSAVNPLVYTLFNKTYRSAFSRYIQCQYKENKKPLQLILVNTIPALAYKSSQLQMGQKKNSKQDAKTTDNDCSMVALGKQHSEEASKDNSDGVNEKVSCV

[3] = target: T3, 5-hydroxytryptamine receptor 2B (Homo sapiens, UniProt P41595); assay: Binding affinity to 5HT2B receptor (unknown origin) assessed as inhibition constant
T3 sequence (P41595 whole entry): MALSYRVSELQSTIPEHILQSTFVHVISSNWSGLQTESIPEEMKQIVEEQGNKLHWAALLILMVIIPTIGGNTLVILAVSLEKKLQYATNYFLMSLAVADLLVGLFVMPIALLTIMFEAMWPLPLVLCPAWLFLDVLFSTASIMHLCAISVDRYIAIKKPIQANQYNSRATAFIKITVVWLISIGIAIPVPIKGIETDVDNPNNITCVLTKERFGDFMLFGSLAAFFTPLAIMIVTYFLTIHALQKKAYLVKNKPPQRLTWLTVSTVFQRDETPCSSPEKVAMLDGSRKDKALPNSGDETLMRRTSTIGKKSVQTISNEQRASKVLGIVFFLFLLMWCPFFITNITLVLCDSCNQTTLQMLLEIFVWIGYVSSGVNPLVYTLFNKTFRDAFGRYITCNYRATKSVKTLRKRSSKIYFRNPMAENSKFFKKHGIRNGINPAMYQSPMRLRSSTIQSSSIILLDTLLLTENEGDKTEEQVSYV

[4] = target: T3, 5-hydroxytryptamine receptor 2B; assay: Displacement of [3H]-LSD from human 5-HT2B receptor expressed in HEK cells at 10 uM incubated for 1 hr relative to control; format: cell-based
[5] = target: T4, 5-hydroxytryptamine receptor 2C (Homo sapiens) (UniProt P28335); assay: Displacement of [3H]-Mesulergine from human 5-HT2C expressed in Flp-In-T-REx-293 cells at 10 uM incubated for 1 hr relative to control; format: cell-based
T4 sequence (whole entry): T1 sequence (P28335 whole entry)

[6] = target: T2, 5-hydroxytryptamine receptor 2A; assay: Displacement of [3H]ketanserin from human 5-HT2A receptor expressed in HEK293 cells at 10 uM incubated for 1 hr relative to control; format: cell-based
[7] = target: T5, Adenosine receptor A1 (Homo sapiens, UniProt P30542); assay: Displacement of […] from human A1AR expressed in Flp-In-T-REx-293 cells assessed as inhibition constant; format: cell-based
T5 sequence (P30542 whole entry): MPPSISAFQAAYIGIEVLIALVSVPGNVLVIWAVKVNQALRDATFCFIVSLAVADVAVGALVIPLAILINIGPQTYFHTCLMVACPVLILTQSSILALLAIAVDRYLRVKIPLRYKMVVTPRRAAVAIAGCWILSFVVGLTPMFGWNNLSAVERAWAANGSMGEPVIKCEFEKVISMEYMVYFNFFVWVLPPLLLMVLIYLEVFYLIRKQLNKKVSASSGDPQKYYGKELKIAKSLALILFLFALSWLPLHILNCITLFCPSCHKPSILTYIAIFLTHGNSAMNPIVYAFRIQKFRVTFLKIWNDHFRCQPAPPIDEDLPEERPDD

[8] = target: Adenosine receptor A2a (Homo sapiens) (UniProt P29274); assay: Displacement of […] from human A2AR expressed in HEK cells at 10 uM relative to control; format: cell-based
Adenosine receptor A2a (Homo sapiens), sequence (P29274 whole entry): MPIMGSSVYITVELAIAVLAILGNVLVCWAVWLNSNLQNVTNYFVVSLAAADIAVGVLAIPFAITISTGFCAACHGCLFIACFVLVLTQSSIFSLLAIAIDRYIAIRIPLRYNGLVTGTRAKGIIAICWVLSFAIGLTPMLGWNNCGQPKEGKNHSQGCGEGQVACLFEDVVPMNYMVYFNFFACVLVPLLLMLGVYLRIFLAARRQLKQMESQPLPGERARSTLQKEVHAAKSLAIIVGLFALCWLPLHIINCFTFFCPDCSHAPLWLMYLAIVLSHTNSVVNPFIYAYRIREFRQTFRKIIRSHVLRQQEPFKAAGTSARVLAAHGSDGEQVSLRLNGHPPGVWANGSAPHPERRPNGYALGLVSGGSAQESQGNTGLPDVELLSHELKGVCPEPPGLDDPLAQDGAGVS

[9] = target: T6, Adenosine receptor A3 (Homo sapiens) (UniProt P0DMS8); assay: Displacement of […] from human A3AR expressed in HEK cells at 10 uM relative to control; format: cell-based
T6 sequence (whole entry): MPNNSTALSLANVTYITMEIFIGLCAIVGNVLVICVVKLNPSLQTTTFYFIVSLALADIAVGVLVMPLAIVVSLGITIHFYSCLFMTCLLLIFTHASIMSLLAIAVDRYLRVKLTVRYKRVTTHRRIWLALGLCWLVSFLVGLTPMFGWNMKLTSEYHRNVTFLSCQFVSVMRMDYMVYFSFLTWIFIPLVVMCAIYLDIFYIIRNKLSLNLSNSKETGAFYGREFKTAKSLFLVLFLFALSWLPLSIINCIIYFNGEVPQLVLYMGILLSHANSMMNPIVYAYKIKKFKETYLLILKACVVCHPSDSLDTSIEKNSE

[10] = target: T1, 5-hydroxytryptamine receptor 2C; assay: Displacement of [3H]-Mesulergine from human 5-HT2C expressed in Flp-In-T-REx-293 cells assessed as inhibition constant incubated for 1 hr; format: cell-based; details: read-out: Ki
[11] = target: T7, Adenosine receptor A3 (Homo sapiens, UniProt P0DMS8); assay: Displacement of […] from human A3AR expressed in HEK cells assessed as inhibition constant; format: cell-based
T7 sequence (P0DMS8 whole entry): T6 sequence (whole entry)

[12] = target: T3, 5-hydroxytryptamine receptor 2B; assay: Displacement of [3H]-LSD from human 5-HT2B receptor expressed in HEK cells assessed as inhibition constant incubated for 1 hr; format: cell-based
[13] = target: T4, 5-hydroxytryptamine receptor 2C (Homo sapiens); assay: Binding affinity to 5HT2C receptor (unknown origin) at 10 uM relative to control
[14] = target: T8, Alpha-2B adrenergic receptor (Homo sapiens, UniProt P18089); assay: Binding affinity to alpha2B receptor (unknown origin) assessed as inhibition constant
T8 sequence (P18089 whole entry): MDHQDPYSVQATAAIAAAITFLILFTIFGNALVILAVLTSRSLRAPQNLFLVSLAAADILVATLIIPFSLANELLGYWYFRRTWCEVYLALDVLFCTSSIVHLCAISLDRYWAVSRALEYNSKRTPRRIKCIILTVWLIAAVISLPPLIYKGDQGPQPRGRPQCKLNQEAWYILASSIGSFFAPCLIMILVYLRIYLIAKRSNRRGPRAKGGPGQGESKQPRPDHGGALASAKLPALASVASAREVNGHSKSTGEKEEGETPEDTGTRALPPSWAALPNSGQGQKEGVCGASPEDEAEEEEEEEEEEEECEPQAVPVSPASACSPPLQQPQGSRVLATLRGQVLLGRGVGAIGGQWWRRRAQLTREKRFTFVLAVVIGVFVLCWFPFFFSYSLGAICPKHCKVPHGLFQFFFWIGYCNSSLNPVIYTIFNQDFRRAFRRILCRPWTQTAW

Question: How did the Ki [1] turn out when `OC[C@@]12C[C@@H]1[C@@H](n1cnc3c(NC(C4CCC4)C4CCC4)ncnc31)[C@H](O)[C@@H]2O` was run?
Answer: 1020 nM

Question: And the Activity [2]?
Answer: 18%

Question: And the Ki [3]?
Answer: 186 nM

Question: Which Activity ([4]; filed as antagonist) does the source give for `OC[C@H]1O[C@@H](n2cnc3c(N[C@H](C4CCC4)C4CC4)nc(I)nc32)[C@H](O)[C@@H]1O` here?
Answer: 44%

Question: What about the Activity [5] of the same molecule?
Answer: -1%

Question: What about the Activity [6] of the same molecule?
Answer: 6%

Question: What about the Ki [7] of the same molecule?
Answer: 21.3 nM

Question: And the Activity ([8]; filed as agonist)?
Answer: 72%

Question: And the Activity [9]?
Answer: 34%

Question: Which results are given for `CCOC(=O)[C@@]12C[C@@H]1[C@@H](n1cnc3c(NC(C4CCCC4)C4CCCC4)nc(Cl)nc31)[C@H](O)[C@@H]2O`?
Answer: Ki [10]: 139 nM; Ki [11]: 9720 nM; Activity ([6]; filed as antagonist): 42%; Activity [8]: -22%; Ki [12]: 239 nM

Question: For `CC(C)[C@@H](Nc1nc(I)nc2c1ncn2[C@H]1[C@H](O)[C@H](O)[C@]2(CO)C[C@H]12)C1CC1`, which Ki [10] is on record?
Answer: 904 nM

Question: What about the Ki [11] of the same molecule?
Answer: 11700 nM

Question: And the Activity [6]?
Answer: 7%

Question: And the Ki [7]?
Answer: 30.7 nM

Question: And the Activity ([8]; filed as agonist)?
Answer: 60%

Question: And the Ki [12]?
Answer: 81.9 nM

Question: Which results are given for `NC[C@H]1O[C@@H](n2cnc3c(N[C@H](C4CCC4)C4CC4)nc(I)nc32)[C@H](O)[C@@H]1O`?
Answer: Activity [5]: -1%; Activity [6]: 9%; Ki [7]: 147 nM; Activity [8]: 39%; Ki [12]: 178 nM; Activity ([9]; filed as agonist): 56%

Question: `O[C@@H]1[C@H](O)[C@@H]2C[C@@H]2[C@H]1n1ccc2c(NC(C3CC3)C3CC3)nc(I)nc21` was tested. Which Activity [2] did it give?
Answer: 3%

Question: And the Ki [3]?
Answer: 1300 nM

Question: What about the pKi [3] of the same molecule?
Answer: 5.88

Question: What about the Activity [13] of the same molecule?
Answer: 30%

Question: Which Ki [10] does the source give for `O[C@H]1[C@H](n2cnc3c(NC(C4CCCCC4)C4CCCCC4)nc(Cl)nc32)[C@H]2C[C@@]2(CCl)[C@H]1O` here?
Answer: 73.5 nM

Question: What about the Ki [11] of the same molecule?
Answer: 9320 nM

Question: What about the Activity [8] of the same molecule?
Answer: -9%

Question: `OC[C@@]12C[C@@H]1[C@@H](n1cnc3c(NC(C4CCC4)C4CCC4)nc(Cl)nc31)[C@H](O)[C@@H]2O` was tested. Which Ki [1] did it give?
Answer: 368 nM

Question: What about the Activity [2] of the same molecule?
Answer: 8%

Question: Which Ki [11] does the source give for `OC[C@@]12C[C@@H]1[C@@H](n1cnc3c(NC(C4CCCCC4)C4CCCCC4)nc(Cl)nc31)[C@H](O)[C@@H]2O` here?
Answer: 16600 nM

Question: And the Activity ([6]; filed as antagonist)?
Answer: 47%

Question: And the Activity [8]?
Answer: 7%

Question: With `CCCCSC[C@@]12C[C@@H]1[C@@H](n1cnc3c(NC(C4CCCC4)C4CCCC4)nc(Cl)nc31)[C@H](O)[C@@H]2O` as the molecule, how does the Activity [5] read?
Answer: 27%

Question: And the Activity [6]?
Answer: 22%

Question: And the Activity [8]?
Answer: 8%

Question: And the Ki [12]?
Answer: 549 nM

Question: `CCOC(=O)[C@@]12C[C@@H]1[C@@H](n1cnc3c(NC(C4CCC4)C4CCC4)nc(Cl)nc31)[C@H](O)[C@@H]2O` was tested. Which Ki [1] did it give?
Answer: 351 nM

Question: And the Activity [2]?
Answer: 35%

Question: What about the Ki [3] of the same molecule?
Answer: 136 nM

Question: How did the Activity [4] turn out when `COCCN(CCOC)C(=O)[C@]12C[C@H]1[C@H](n1cnc3c(N)nc(Cl)nc31)[C@@H](O)[C@H]2O` (single isomer, unassigned) was run?
Answer: 36%

Question: And the Activity [5]?
Answer: 12%

Question: And the Activity [6]?
Answer: 3%

Question: What about the Activity ([9]; filed as agonist) of the same molecule?
Answer: 51%

Question: With `CSC[C@@]12C[C@@H]1[C@@H](n1cnc3c(N)nc(I)nc31)[C@H](O)[C@@H]2O` as the molecule, how does the Activity [4] read?
Answer: 12%

Question: And the Ki [11]?
Answer: 92.5 nM

Question: And the Activity [5]?
Answer: 12%

Question: What about the Activity [6] of the same molecule?
Answer: 0%

Question: And the Ki [7]?
Answer: 1350 nM

Question: `CSC[C@@]12C[C@@H]1[C@@H](n1cnc3c(NC(C4CCCC4)C4CCCC4)nc(Cl)nc31)[C@H](O)[C@@H]2O` was tested. Which Ki [10] did it give?
Answer: 481 nM

Question: What about the Ki [11] of the same molecule?
Answer: 5270 nM

Question: What about the Ki [14] of the same molecule?
Answer: 1700 nM

Question: And the Activity ([6]; filed as antagonist)?
Answer: 47%

Question: And the Activity [8]?
Answer: -12%

— ChEMBL document CHEMBL5625223 (Eur J Med Chem, 2023)
